Measurements published in US20050148553A1, “Use of tigecycline, alone, or in combination with rifampin to treat osteomyelitis and/or septic arthritis” (priority 2003, published 2005).

Experiment: Whole body autoradiography after 30-minute 3 mg/kg IV infusion of [^14C]-tigecycline
Assay type: in vivo, Sprague-Dawley rats
Protocol: Male Sprague-Dawley and Long-Evans rats were obtained from Charles River Breeding Laboratories, Raleigh, N.C., and were quarantined for at least one week prior to the start of the study. […] The dosing solution was diluted and radioassayed directly in Ultima Gold scintillation counting cocktail (Packard Inc.). […] All pumps were calibrated prior to the administration of the compound. Rats were anesthetized with isoflurane prior to cardiac puncture exsanguination at the prescribed times after dosing. […] Control whole blood was collected from male Sprague-Dawley rats into tubes containing sodium heparin. Pooled blood was used to prepare the calibration standards and quality control samples. The standards were used to construct the standard curve for the quantification of radiolabeled drug distribution in tissues of whole blood cryosections. The quality controls, which were embedded in the same CMC block with each rat, were used for assessing intra- and inter-section variation in the thickness of rat whole-body cryosections. […] Immediately following euthanasia, each rat was totally immersed in a bath of hexane and dry ice (−75° C.) until frozen. Each carcass was dried and stored at −30° C. until embedded. […] Each frozen rat was sagitally sectioned at −20° C. A sufficient number of sections were collected to ensure sampling of all tissues of interest. The sections were dehydrated overnight in a cryochamber and then rapidly transferred to a dessicator containing CaSO4 to prevent condensation of atmospheric moisture while equilibrating to room temperature. The sections were mounted on cardboard and labeled with [^14C]-labeled black ink with a unique identification number. […] A small piece of Scotch tape was placed over the dried radioactive ink to prevent the contamination of the storage phosphor screens. Phosphor imaging plates, BAS-SR 2025 (Fuji Photo Film Co., Japan) were exposed to bright visible light for 20 minutes using an IP eraser (Raytest, USA Inc., New Castle, Del.) to remove background radiation. Sections and calibration blood standards were concurrently placed in direct contact with Ips and exposed for 7 days. All sections were stored at room temperature in a lead shielding box to minimize background levels. Phosphor images were generated using a Fujifilm BAS-5000 Bio-Imaging Analyzer and quantitated by MCID M2 Software, version 3.2 (Imaging Research Inc., St. Catherines, Ontario, Canada). The STDs and QCs were analyzed using the circular sampling tool in the MCID software program. Areas of interest in whole-body sections were manually outlined with the regional sampling tool to generate count data. Radioactive concentrations in select tissues were determined by digital analysis of the resulting autoradiograms on the basis of a calibration curve. […] The linear regression curve was then used to determine the concentration of unknown radioactivity of study samples. […] Blood samples were combusted using a Model 307 sample oxidizer (Packard Instrument Company). […] Research Triangle Park, N.C.), which applies a model-independent approach and standard procedures as described in Gibaldi and Perrier. Gibaldi, Pharmacokinetics, 1982. […] For IV infusion dosing, C30 min was the concentration at 30 minutes, the first sampling time point. The maximum plasma concentration (Cmax) and the corresponding time of peak concentration following IV administration were obtained directly by numerical inspection from the individual concentration-time data. The terminal half-life was calculated by the ratio of ln2/λz where λz is derived from the terminal slope of the concentration time curve. The area under the plasma concentration versus time curve from zero to infinity was calculated using the trapezoidal rule, where Clast is the last measurable plasma concentration. […]

## CN(C)c1cc(NC(=O)CNC(C)(C)C)c(O)c2c1C[C@H]1C[C@H]3[C@H](N(C)C)C(O)=C(C(N)=O)C(=O)[C@@]3(O)C(O)=C1C2=O [[^14C]-Tigecycline]
Liver, 24 Hrs
  Mean concentration of total radioactivity: 160 ng equiv./g
  Tissue:Plasma Ratio: 10.8
Liver, 72 Hrs
  Mean concentration of total radioactivity: 22.7 ng equiv./g
  Tissue:Plasma Ratio: 5.26
Liver, 168 Hrs
  Mean concentration of total radioactivity: 13.3 ng equiv./g
Liver, 336 Hrs
  Mean concentration of total radioactivity: <5.10 ng equiv./g
Liver, first AUC column
  AUC: 52676 Ng eq hr/g
Lung, 0.5 Hrs
  Mean concentration of total radioactivity: 2981 ng equiv./g
  Tissue:Plasma Ratio: 3.33
Lung, 8.5 Hrs
  Mean concentration of total radioactivity: 496 ng equiv./g
  Tissue:Plasma Ratio: 0.984
Lung, 24 Hrs
  Mean concentration of total radioactivity: 73.1 ng equiv./g
  Tissue:Plasma Ratio: 4.96
Lung, 72 Hrs
  Mean concentration of total radioactivity: 13.5 ng equiv./g
  Tissue:Plasma Ratio: 3.13
Lung, 168 Hrs
  Mean concentration of total radioactivity: <5.10 ng equiv./g
Lung, 336 Hrs
  Mean concentration of total radioactivity: <5.10 ng equiv./g
Lung, first AUC column
  AUC: 21263 Ng eq hr/g
Lymph Node
  AUC: 37010 Ng eq hr/g
Lymph Node, 0.5 Hrs
  Mean concentration of total radioactivity: 3473 ng equiv./g
  Tissue:Plasma Ratio: 3.88
Lymph Node, 8.5 Hrs
  Mean concentration of total radioactivity: 1276 ng equiv./g
  Tissue:Plasma Ratio: 2.53
Lymph Node, 24 Hrs
  Mean concentration of total radioactivity: 180 ng equiv./g
  Tissue:Plasma Ratio: 12.2
Lymph Node, 72 Hrs
  Mean concentration of total radioactivity: 29.1 ng equiv./g
  Tissue:Plasma Ratio: 6.75
Lymph Node, 168 Hrs
  Mean concentration of total radioactivity: <5.10 ng equiv./g
Lymph Node, 336 Hrs
  Mean concentration of total radioactivity: <5.10 ng equiv./g
Lymph Node, first AUC column
  AUC: 36478 Ng eq hr/g
Muscle
  AUC: 34910 Ng eq hr/g
Muscle, 0.5 Hrs
  Mean concentration of total radioactivity: 2260 ng equiv./g
  Tissue:Plasma Ratio: 2.52
Muscle, 8.5 Hrs
  Mean concentration of total radioactivity: 1863 ng equiv./g
  Tissue:Plasma Ratio: 3.70
Muscle, 24 Hrs
  Mean concentration of total radioactivity: 85.8 ng equiv./g
  Tissue:Plasma Ratio: 5.801
Muscle, 72 Hrs
  Mean concentration of total radioactivity: 6.24 ng equiv./g
  Tissue:Plasma Ratio: 1.45
Muscle, 168 Hrs
  Mean concentration of total radioactivity: <5.10 ng equiv./g
Muscle, 336 Hrs
  Mean concentration of total radioactivity: <5.10 ng equiv./g
Muscle, first AUC column
  AUC: 34833 Ng eq hr/g
Pancreas
  AUC: 33014 Ng eq hr/g
Pancreas, 0.5 Hrs
  Mean concentration of total radioactivity: 4437 ng equiv./g
  Tissue:Plasma Ratio: 4.96
Pancreas, 8.5 Hrs
  Mean concentration of total radioactivity: 971 ng equiv./g
  Tissue:Plasma Ratio: 1.93
Pancreas, 24 Hrs
  Mean concentration of total radioactivity: 70.0 ng equiv./g
  Tissue:Plasma Ratio: 4.75
Pancreas, 72 Hrs
  Mean concentration of total radioactivity: 7.41 ng equiv./g
  Tissue:Plasma Ratio: 1.72
Pancreas, 168 Hrs
  Mean concentration of total radioactivity: <5.10 ng equiv./g
Pancreas, 336 Hrs
  Mean concentration of total radioactivity: <5.10 ng equiv./g
Pancreas, first AUC column
  AUC: 32908 Ng eq hr/g
Pituitary
  AUC: 45164 Ng eq hr/g
Pituitary, 0.5 Hrs
  Mean concentration of total radioactivity: 3693 ng equiv./g
  Tissue:Plasma Ratio: 4.13
Pituitary, 8.5 Hrs
  Mean concentration of total radioactivity: 2014 ng equiv./g
  Tissue:Plasma Ratio: 4.00
Pituitary, 24 Hrs
  Tissue:Plasma Ratio: 9.79
Pituitary, 72 Hrs
  Tissue:Plasma Ratio: 4.36
Pituitary, first AUC column
  AUC: 44882 Ng eq hr/g
Plasma
  AUC: 10652 Ng eq hr/g
Plasma, 0.5 Hrs
  Tissue:Plasma Ratio: 1.00
Plasma, 8.5 Hrs
  Tissue:Plasma Ratio: 1.00
Plasma, 24 Hrs
  Tissue:Plasma Ratio: 1.00
Plasma, 72 Hrs
  Tissue:Plasma Ratio: 1.00
Plasma, first AUC column
  AUC: 10643 Ng eq hr/g
Salivary Gland
  AUC: 110979 Ng eq hr/g
Salivary Gland, 0.5 Hrs
  Tissue:Plasma Ratio: 6.45
Salivary Gland, 8.5 Hrs
  Tissue:Plasma Ratio: 12.53
Salivary Gland, 24 Hrs
  Tissue:Plasma Ratio: 20.3
Salivary Gland, 72 Hrs
  Tissue:Plasma Ratio: 7.32
Salivary Gland, first AUC column
  AUC: 110558 Ng eq hr/g
Skin
  AUC: 36471 Ng eq hr/g
Skin, 0.5 Hrs
  Tissue:Plasma Ratio: 2.15
Skin, 8.5 Hrs
  Tissue:Plasma Ratio: 1.14
Skin, 24 Hrs
  Tissue:Plasma Ratio: 16.9
Skin, 72 Hrs
  Tissue:Plasma Ratio: 19.3
Skin, first AUC column
  AUC: 31819 Ng eq hr/g
Spleen
  AUC: 70522 Ng eq hr/g
  Cmax: 6627 Ng equiv/g
Spleen, 0.5 Hrs
  Tissue:Plasma Ratio: 7.40
Spleen, 8.5 Hrs
  Tissue:Plasma Ratio: 3.36
Spleen, 24 Hrs
  Tissue:Plasma Ratio: 32.3
Spleen, 72 Hrs
  Tissue:Plasma Ratio: 16.7
Spleen, first AUC column
  AUC: 69638 Ng eq hr/g
Testes, 0.5 Hrs
  Tissue:Plasma Ratio: 0.388
Testes, 8.5 Hrs
  Tissue:Plasma Ratio: 0.716
Testes, 24 Hrs
  Tissue:Plasma Ratio: 8.08
Testes, 72 Hrs
  Tissue:Plasma Ratio: 3.80
Testes, first AUC column
  AUC: 9975 Ng eq hr/g
Testes, second AUC column
  AUC: 10323 Ng eq hr/g
Testes, second AUC column, listed as [^14C]-tigecycline
  AUC: 10303 Ng eq hr/g
Thymus
  AUC: 35430 Ng eq hr/g
Thymus, 0.5 Hrs
  Tissue:Plasma Ratio: 2.82
Thymus, 8.5 Hrs
  Tissue:Plasma Ratio: 3.16
Thymus, 24 Hrs
  Tissue:Plasma Ratio: 10.7
Thymus, 72 Hrs
  Tissue:Plasma Ratio: 3.55
Thymus, first AUC column
  AUC: 35204 Ng eq hr/g
Thyroid
  AUC: 330047 Ng eq hr/g
Thyroid, 0.5 Hrs
  Tissue:Plasma Ratio: 3.34
Thyroid, 8.5 Hrs
  Tissue:Plasma Ratio: 3.50
Thyroid, 24 Hrs
  Tissue:Plasma Ratio: 24.0
Thyroid, 72 Hrs
  Tissue:Plasma Ratio: 56.0
Thyroid, 72 Hrs, listed as [^14C]-tigecycline
  Tissue:Plasma Ratio: 56
Thyroid, first AUC column
  AUC: 113022 Ng eq hr/g
lung
  AUC: 21523 Ng eq hr/g
male, Sprague-Dawley, rat, in vivo
  elimination half-lives across tissues: 5 to 217 h
